Test results taken from publication PMC11641755, “Features of Highly Homologous T-Cell Receptor Repertoire in the Immune Response to Mutations in Immunogenic Epitopes” (International Journal of Molecular Sciences, 2024).

Tests used:
Format in all cases: cell-based, human
[1] = tested on: TCR NYN-2 (Jurkat E6-1 TPR cells)
[2] = tested on: NYN peptide-specific TCRs (NYN-1 to NYN-4 Jurkat E6-1 TPR cell lines)
[3] = tested on: TCR NYN-3 (Jurkat E6-1 TPR cells)
[4] = tested on: TCR NYN-1 (Jurkat E6-1 TPR cells)

| Sequence | effect of the mutation on response / affinity of NYN-2 (in words) [1] | effect of the mutation on the T-cell response / recognition (in words) [2] | effect of the mutation on response / affinity of NYN-3 (in words) [3] | effect of the mutation on response / affinity of NYN-1 (in words) [4] |
| --- | --- | --- | --- | --- |
| NYDYWYRLF [N450D + L452W] | increased the affinity | did not affect the T-cell response | increased the affinity |  |
| NYDYMYRLF [N450D + L452M] | slightly disrupted the response |  | slightly disrupted the response | not |
